Source: paper PMC10536189 (Microorganisms, 2023)
Like-named read-outs stand apart in the source and are kept apart here.

Test system: M. tuberculosis
Type: cell-based, Mycobacterium tuberculosis (laboratory strain H37Rv)
Conditions: for Average % Faster than Control: negative = slower; for Time to Positivity (Days.Hours) Experiment 2a / Time to Positivity (Days.Hours) Experiment 2b: diluted inoculum; for Time to Positivity (Days.Hours) Experiment 2a: technical repeat 2a, TB control (no peptide) 15.01; for Time to Positivity (Days.Hours) Experiment 2b: technical repeat 2b, TB control (no peptide) 15.20; for Time to Positivity (Days.Hours) Experiment 1a / Time to Positivity (Days.Hours) Experiment 1b: less diluted inoculum; for Time to Positivity (Days.Hours) Experiment 1a: technical repeat 1a, TB control (no peptide) 7.02; for Time to Positivity (Days.Hours) Experiment 1b: technical repeat 1b, TB control (no peptide) 7.01
[1] = crude peptide 10 µg/mL, MGIT, independent experiment 1, Control (TB only) 11.10, inoculum emulsified through G25 needle
[2] = crude peptide 10 µg/mL, MGIT, independent experiment 2, Control (TB only) 9.10, inoculum emulsified through G25 needle
[3] = crude peptide 10 µg/mL, average of experiments 1 and 2
[4] = peptide 10 µg/mL, overall average of the averages of experiments 1a/1b and 2a/2b

Substance: HFLGTLVNLAKKIL [Temporin-1DRa/Frog, naturally occurring peptide, APD3, frog]
- Time to Positivity (Day.Hours) Experiment 1 [1]: 10.18 Day.Hours
- Time to Positivity (Day.Hours) Experiment 2 [2]: 8.09 Day.Hours
- Average % Faster than Control [3]: 8.5%

Substance: 64: peptide from the authors' library (RLARIVVIRVAR) [Peptide 64]
- Time to Positivity (Days.Hours) Experiment 2a (peptide 10 µg/mL, MGIT): 15.21 Days.Hours
- Time to Positivity (Days.Hours) Experiment 2b (peptide 10 µg/mL, MGIT): 16.13 Days.Hours
- Time to Positivity (Days.Hours) Experiment 1a (peptide 10 µg/mL, MGIT): 6.19 Days.Hours
- Time to Positivity (Days.Hours) Experiment 1b (peptide 10 µg/mL, MGIT): 6.16 Days.Hours
- Average % Faster than Control [4]: −1.4%

Substance: Bombolitin V/Bee: naturally occurring peptide, APD3, bee (INVLGILGLLGKALSHL)
- Time to Positivity (Day.Hours) Experiment 1: 10.22 Day.Hours
- Time to Positivity (Day.Hours) Experiment 2: 8.13 Day.Hours
- Average % Faster than Control [3]: 6.8%

Substance: GLGSLVGNALRIGAKLL [CPF-AM4/Frog]
- Time to Positivity (Day.Hours) Experiment 1: 10.17 Day.Hours
- Time to Positivity (Day.Hours) Experiment 2: 8.06 Day.Hours
- Average % Faster than Control [3]: 9.3%

Substance: ALKAALLAILKIVRVI [CM-3/Designed]
- Time to Positivity (Day.Hours) Experiment 1: 11.04 Day.Hours
- Time to Positivity (Day.Hours) Experiment 2: 8.03 Day.Hours
- Average % Faster than Control [3]: 8.0%

Substance: Pd_mastoparan PDD-B/Wasp: naturally occurring peptide, APD3, wasp (INWLKLGKKILGAL)
- Time to Positivity (Day.Hours) Experiment 1: 11.06 Day.Hours
- Time to Positivity (Day.Hours) Experiment 2: 8.09 Day.Hours
- Average % Faster than Control [3]: 6.3%

Substance: LLGDFFRKSKEKIGKEFKRIVQRIKDFLRNLVPRTES [Peptide 78, reference compound]
- Effect on TTP of MTB in words (peptide 10 µg/mL, MGIT): lower TTP
- Time to Positivity (Days.Hours) Experiment 2a (peptide 10 µg/mL, MGIT): 14.15 Days.Hours
- Time to Positivity (Days.Hours) Experiment 2b (peptide 10 µg/mL, MGIT): 15.00 Days.Hours
- Time to Positivity (Days.Hours) Experiment 1a (peptide 10 µg/mL, MGIT): 6.08 Days.Hours
- Time to Positivity (Days.Hours) Experiment 1b (peptide 10 µg/mL, MGIT): 6.09 Days.Hours
- Average % Faster than Control [4]: 5.8%

Substance: Eumenitin/Wasp: naturally occurring peptide, APD3, wasp (LNLKGIFKKVASLLT)
- Time to Positivity (Day.Hours) Experiment 1: 11.00 Day.Hours
- Time to Positivity (Day.Hours) Experiment 2: 8.08 Day.Hours
- Average % Faster than Control [3]: 7.6%

Substance: GFWGKLFKLGLHGIGL [NRC-15/Flounder]
- Time to Positivity (Day.Hours) Experiment 1: 11.02 Day.Hours
- Time to Positivity (Day.Hours) Experiment 2: 8.14 Day.Hours
- Average % Faster than Control [3]: 5.9%

Substance: ILPFLAGLFSKIL [Pelophylaxin-4/Frog]
- Time to Positivity (Day.Hours) Experiment 1: 11.05 Day.Hours
- Time to Positivity (Day.Hours) Experiment 2: 8.18 Day.Hours
- Average % Faster than Control [3]: 4.5%

Substance: WCFRVCYKGFCYRKCR [Polyphemusin/Crab *]
- Time to Positivity (Day.Hours) Experiment 1: 11.05 Day.Hours
- Time to Positivity (Day.Hours) Experiment 2: 8.13 Day.Hours
- Average % Faster than Control [3]: 5.6%

Substance: LLAGLPKLLCLFFKKC [Brevinin-1DYc/Frog]
- Time to Positivity (Day.Hours) Experiment 1: 11.10 Day.Hours
- Time to Positivity (Day.Hours) Experiment 2: 8.16 Day.Hours
- Average % Faster than Control [3]: 4.0%

Substance: 67: peptide from the authors' library (RLWRIVVIRVAR) [Peptide 67]
- Time to Positivity (Days.Hours) Experiment 2a (peptide 10 µg/mL, MGIT): 16.00 Days.Hours
- Time to Positivity (Days.Hours) Experiment 2b (peptide 10 µg/mL, MGIT): 16.05 Days.Hours
- Time to Positivity (Days.Hours) Experiment 1a (peptide 10 µg/mL, MGIT): 6.19 Days.Hours
- Time to Positivity (Days.Hours) Experiment 1b (peptide 10 µg/mL, MGIT): 6.11 Days.Hours
- Average % Faster than Control [4]: −0.4%

Substance: SAPRGCWTKSYPPKPCK [Ranacyclin E/Frog]
- Time to Positivity (Day.Hours) Experiment 1: 10.07 Day.Hours
- Time to Positivity (Day.Hours) Experiment 2: 8.01 Day.Hours
- Average % Faster than Control [3]: 12.2%

Substance: INLKAIAALVKKLL [Mastoparan-VT6/Wasp]
- Time to Positivity (Day.Hours) Experiment 1: 10.21 Day.Hours
- Time to Positivity (Day.Hours) Experiment 2: 8.04 Day.Hours
- Average % Faster than Control [3]: 9.0%

Substance: SLLSLIRKLIT [Decoralin/Wasp]
- Time to Positivity (Day.Hours) Experiment 1: 11.12 Day.Hours
- Time to Positivity (Day.Hours) Experiment 2: 8.04 Day.Hours
- Average % Faster than Control [3]: 6.3%

Substance: FLSIIAKVLGSLF [Temporin 1Vb/Frog]
- Time to Positivity (Day.Hours) Experiment 1: 11.10 Day.Hours
- Time to Positivity (Day.Hours) Experiment 2: 8.08 Day.Hours
- Average % Faster than Control [3]: 5.8%

Substance: FITLLLRKFICSITKKC [Brevinin-1Ta/Frog]
- Time to Positivity (Day.Hours) Experiment 1: 11.07 Day.Hours
- Time to Positivity (Day.Hours) Experiment 2: 8.05 Day.Hours
- Average % Faster than Control [3]: 7.0%

Substance: ILPWKWPWWPWRR [Indolicidin/Cow]
- Time to Positivity (Day.Hours) Experiment 1: 11.03 Day.Hours
- Time to Positivity (Day.Hours) Experiment 2: 8.18 Day.Hours
- Average % Faster than Control [3]: 4.8%

Substance: RGGRLCYCRRRFCVCV [Protegrin 1/Pig *]
- Time to Positivity (Day.Hours) Experiment 1: 10.23 Day.Hours
- Time to Positivity (Day.Hours) Experiment 2: 6.22 Day.Hours
- Average % Faster than Control [3]: 15.3%

Substance: 76: peptide from the authors' library (VRWRIRVAVIRA) [Peptide 76]
- Time to Positivity (Days.Hours) Experiment 2a (peptide 10 µg/mL, MGIT): 16.08 Days.Hours
- Time to Positivity (Days.Hours) Experiment 2b (peptide 10 µg/mL, MGIT): 16.14 Days.Hours
- Time to Positivity (Days.Hours) Experiment 1a (peptide 10 µg/mL, MGIT): 6.13 Days.Hours
- Time to Positivity (Days.Hours) Experiment 1b (peptide 10 µg/mL, MGIT): 6.16 Days.Hours
- Average % Faster than Control [4]: −1.4%

Substance: 60: peptide from the authors' library (ILKWKIFKWKWFR) [Peptide 60]
- Time to Positivity (Days.Hours) Experiment 2a (peptide 10 µg/mL, MGIT): 14.19 Days.Hours
- Time to Positivity (Days.Hours) Experiment 2b (peptide 10 µg/mL, MGIT): 14.16 Days.Hours
- Time to Positivity (Days.Hours) Experiment 1a (peptide 10 µg/mL, MGIT): 6.03 Days.Hours
- Time to Positivity (Days.Hours) Experiment 1b (peptide 10 µg/mL, MGIT): 6.02 Days.Hours
- Average % Faster than Control [4]: 7.9%

Substance: RWCFRVCYRGICYRKCR [Tachyplasin II/Crab]
- Time to Positivity (Day.Hours) Experiment 1: 10.18 Day.Hours
- Time to Positivity (Day.Hours) Experiment 2: 8.06 Day.Hours
- Average % Faster than Control [3]: 9.1%

Substance: 71: peptide from the authors' library (RLWRIVVIRVKR) [Peptide 71]
- Time to Positivity (Days.Hours) Experiment 2a (peptide 10 µg/mL, MGIT): 14.01 Days.Hours
- Time to Positivity (Days.Hours) Experiment 2b (peptide 10 µg/mL, MGIT): 14.02 Days.Hours
- Time to Positivity (Days.Hours) Experiment 1a (peptide 10 µg/mL, MGIT): 6.04 Days.Hours
- Time to Positivity (Days.Hours) Experiment 1b (peptide 10 µg/mL, MGIT): 6.06 Days.Hours
- Average % Faster than Control [4]: 9.4%

Substance: FLPLLASLFSRLF [Temporin-1Oc/Frog, naturally occurring peptide, APD3, frog]
- Time to Positivity (Day.Hours) Experiment 1 [1]: 11.10 Day.Hours
- Time to Positivity (Day.Hours) Experiment 2 [2]: 8.17 Day.Hours
- Average % Faster than Control [3]: 3.8%
